The source of these data is patent EP0139891A2, “Pharmaceutical compositions with antibiotic-immunostimulating activity” (B.T.B. INDUSTRIA CHIMICA S.p.A., priority 1983, dated 1985).

One series concerns St Albus ATCC 12228. In words: Phagocytosis test on phagocytes of treated patients. The series is classed as in vivo. Particulars: patients with chronical bronchitis, erythromycin 1 gram and/or inosine 182 mg. The method, then: (§1) of F.F.001 was investigated in a clinical research on patients affected by chronic bronchial infection. The immunostimulating action was determined through the monitorage of the phagocytary and NK cells activity.
2 Ml of a phagocytes suspension (10^6 phagocy- tes/ml) was mixed up in a sterile test tube with 2 ml of St Albus ATCC 12228 (10^6 microorganisms/ ml) suspended in Gelatine "Hanks-solution" with 10% AB serum and 0.4 ml of AB serum.
The mixture was then incubated at 37 degrees C under continuous stirring. 2 Ml of St Albus ATCC 12228 suspended in gelatine "Hanks-solution" with 10% of AB serum (10^6 microorganisms/ml) were mixed up in another sterile test tube with 2.04 ml of Gelatine "Hanks-solution" and incubated under the same conditions described above.
At regular time intervals (0-30 min.-60 min.-90 min.) aliquots of the suspension corresponding to 0.5 ml were added to 1.5 Ml of Gelatine "Hanks-so lution" previously cooled to 4 degrees in order to stop the phagocytosis process.
The samples were then centrifuged for 4 min. at 110 r.p.m. in order to obtain the complete sedimen tation of the leucocytes, while the upper phase consisted of a suspension containing the bacteria (supernatant).
The supernatant liquid was then diluted with a
sterile saline solution (Bacto-haemogglutination Soerensen buffer) at a 1:10 ratio, in order to be sure that at least the last dilution contained a number of living bacteria ranging between 100 and 1000/ml.
Aliquots of 0.1 ml of bacterial suspension were then taken from the […] dilutions and both of them were pipetted on a plate containing Diagnostic Sensitive Test Agar (Oxoid) and immedia tely distributed on the whole surface with a sterile spatula.
The plates were incubated at 37 degrees C for 24 h and the number of colonies was then determined with a colony counter.
The same procedure was followed after having withdrawn aliquots of 0.5 ml of bacterial suspension from the test tube.
Phagocytosis, as a function of time, was determined in vitro and can be expressed as the reduction percent of the number of living bacteria deter mined at the beginning of the experiment (No). [formula]
F(t) is the phagocytosis index after t min., while Nt is the number of living bacteria after t min.
(§2) In the groups 1), 3), 4) and 5) the dose of erythromycin was always 1 gram; in the groups 2), 3), 4) and 5) the corresponding dose of inosine was 182 mg.

The subject of the next series is K562. As to the kind of experiment: Natural killer activity test on lymphocytes of treated patients. The series is classed as in vivo. Particulars: same patients and doses, percentage of aspecific lysis of K562. The method, then:
as §1
This test consists in the determination of the percentage of aspecific lysis of a human tumoral target, K562, mediated by circulating lymphocytes.
The lymphocytes were isolated by centrifuging heparinized blood at a 1:1 dilution with physiologic solution or with a solution of "Hanks" salts of "Ficol".
After 30 min. of centrifugation at 1000 r.p.m. a band of stratified leucocytes was obtained over the "Ficol" level.
At the same time the K562 were labelled with ^51Cr by adding the radioisotope solution to a suspension containing […] in 0.5 ml of colture medium.
After 45 min. of incubation at 37 degrees C the cells were washed three times with a solution of "Hanks" salts.
The labelled cells were then incubated with leucocytes at 37 degrees C at various ratios for 4 h, after which the percentage of […] release was determined in the supernatant and assumed to be directly proportional to the K562 cell lysis mediated by leucocytes.
as §2

The test system of another series is S. aureus. In words: Antibacterial in vitro activity (M.I.C.). The series is classed as cell-based. Particulars: micrograms of substance per ml of bacterial suspension. The method, then:
(§3) The M.I.C.s were determined against three pathogenic bacterial strains, and are expressed as micrograms of substance per ml of bacterial suspension […].

Another series deals with H. influenzae. In words: Antibacterial in vitro activity (M.I.C.). The series is classed as cell-based. Particulars: micrograms of substance per ml of bacterial suspension. The method, then:
as §3

The test system of the next series is S. pyogenes. In words: Antibacterial in vitro activity (M.I.C.). The series is classed as cell-based. Particulars: micrograms of substance per ml of bacterial suspension. The method, then:
as §3

The next series deals with pneumococ bacteria. In words: Antibacterial in vivo activity in infected rats. The arrangement: species or system Sprague-Dawley rats. Particulars: rats infected with LD100 of pneumococ bacteria; orally every twelve hours 25 mg/kg as erythromycin base; 8 days observation. The method, then:
60 Sprague-Dawley rats of both sexes (3 lots of 20 animals each) were infected with an LD100 of pneumococ bacteria. Said LD100 was determined in 10^6C.F.U. and was given to the rats through tracheal cannula. The death of the animals occurred at the 3rd-4th day. The observation period lasted 8 days.
The obtained results are reported in the fol lowing Table I and are expressed as per cent mortalities over the controls.
Both the dead and the survived animals underwent a hystological examination of the main organs, namely lungs, liver, kidneys, heart and brain.

Series [1] in a line: Acute toxicity after oral administration. Particulars: in vivo, rat.
[2] abbreviates: 0 hours (moment of administration), reduction percent of living bacteria.
Where [3] appears, read: 0 hours (moment of administration).

Converted amounts (≈) assume the structure as drawn. Counter-ions that a name gives are not always drawn.

With `OC[C@H]1O[C@@H](n2cnc3c(O)ncnc32)[C@H](O)[C@@H]1O` [Inosine, inosine], the phagocytosis in the series with St Albus ATCC 12228 (setting [2]) is reported as 5-19; in the series on St Albus ATCC 12228 (2 hours after administration), 10-50; with St Albus ATCC 12228 (4 hours after administration) it was 5-19; with St Albus ATCC 12228 (6 hours after administration), 5-19; in the series with St Albus ATCC 12228 (8 hours after administration), 5-19; with St Albus ATCC 12228 (24 hours after administration) it was 5-19. Besides, the NK-test is recorded as 4.5-19.0 with K562 (setting [3]); 10.0-56.5 in the series with K562 (2 hours after administration); 4.5-19.0 in the series with K562 (4 hours after administration); 4.5-19.0 with K562 (6 hours after administration); 4.5-19.0 with K562 (8 hours after administration); 4.5-19.0 with K562 (24 hours after administration).

Take `CCOC(=O)CCC(=O)O[C@H]1[C@H](O[C@@H]2[C@@H](C)[C@H](O[C@H]3C[C@@](C)(OC)[C@@H](O)[C@H](C)O3)[C@@H](C)C(=O)O[C@H](CC)[C@@](C)(O)[C@H](O)[C@@H](C)C(=O)[C@H](C)C[C@@]2(C)O)O[C@H](C)C[C@@H]1N(C)C` [F.F.002, salt of erythromycin ethylsuccinate with inosine-5-phosphoric acid in the molar ratio 2:1]: the phagocytosis with St Albus ATCC 12228 (setting [2]) is 5-20; with St Albus ATCC 12228 (2 hours after administration), 16-62; in the series on St Albus ATCC 12228 (4 hours after administration), 16-62; in the series on St Albus ATCC 12228 (6 hours after administration), 16-62; in the series with St Albus ATCC 12228 (8 hours after administration), 34-82; in the series on St Albus ATCC 12228 (24 hours after administration) it was 5-20. Also, the NK-test in the series on K562 (setting [3]) is recorded as 5.2-17.8; in the series on K562 (2 hours after administration) it was 44.9-68.2; with K562 (4 hours after administration) it was 46.1-69.8; with K562 (6 hours after administration), 50.1-71.8; with K562 (8 hours after administration), 52.9-76.1; in the series on K562 (24 hours after administration), 5.2-17.8.

As for `CCC(=O)O[C@H]1[C@H](O[C@@H]2[C@@H](C)[C@H](O[C@H]3C[C@@](C)(OC)[C@@H](O)[C@H](C)O3)[C@@H](C)C(=O)O[C@H](CC)[C@@](C)(O)[C@H](O)[C@@H](C)C(=O)[C@H](C)C[C@@]2(C)O)O[C@H](C)C[C@@H]1N(C)C` [Er. prop., erythromycin propionate], the MIC was 0.35 µg/mL (≈ 0.443 µM) in the series with S. aureus (Staphylococcus aureus, read-out: minimum inhibiting concentration (M.I.C.)); 0.31 µg/mL (≈ 0.392 µM) in the series on H. influenzae (Haemophilus influenzae, read-out: minimum inhibiting concentration (M.I.C.)); 0.04 µg/mL (≈ 0.0506 µM) in the series on S. pyogenes (Streptococcus pyogenes, read-out: minimum inhibiting concentration (M.I.C.)). The compound further registered a Mortality in the series on pneumococ bacteria of 5%.

As to “salt of erythromycin propionate with inosine-5-phosphoric acid in the molar ratio 2:1 [F.F.001]”, the phagocytosis with St Albus ATCC 12228 (setting [2]) is recorded as 5-20; in the series with St Albus ATCC 12228 (2 hours after administration), 16-62; with St Albus ATCC 12228 (4 hours after administration) it was 16-62; in the series on St Albus ATCC 12228 (6 hours after administration), 16-62; in the series with St Albus ATCC 12228 (8 hours after administration), 34-82; in the series on St Albus ATCC 12228 (24 hours after administration) it was 5-20. Further, the results for the “minimum inhibiting concentration (M.I.C.)” value in the series on S. aureus, with H. influenzae and with S. pyogenes were 0.31 ℓ/ml, 0.31 ℓ/ml and 0.036 ℓ/ml, respectively. Further, the Mortality in the series on pneumococ bacteria was 0%. The NK-test in the series on K562 (setting [3]) was 4.9-21.7; in the series with K562 (2 hours after administration), 45.8-68; in the series with K562 (4 hours after administration), 47.3-70.1; with K562 (6 hours after administration), 48.0-71.1; with K562 (8 hours after administration), 50.2-74.2; in the series with K562 (24 hours after administration) it was 4.9-21.7.

As a reminder, the LD50 is the dose at which mortality reaches 50%. Read a high LD50 as a less toxic substance. With `CC[C@H]1OC(=O)[C@H](C)[C@@H](O[C@H]2C[C@@](C)(OC)[C@@H](O)[C@H](C)O2)[C@H](C)[C@@H](O[C@@H]2O[C@H](C)C[C@H](N(C)C)[C@H]2O)[C@](C)(O)C[C@@H](C)C(=O)[C@H](C)[C@@H](O)[C@]1(C)O` [Erythromycin, erythromycin], the phagocytosis is given as 8-24 with St Albus ATCC 12228 (setting [2]); 8-24 in the series on St Albus ATCC 12228 (2 hours after administration); 8-24 in the series with St Albus ATCC 12228 (4 hours after administration); 8-24 in the series on St Albus ATCC 12228 (6 hours after administration); 31-60 with St Albus ATCC 12228 (8 hours after administration); 8-24 with St Albus ATCC 12228 (24 hours after administration). This compound also registered a Mortality with pneumococ bacteria of 5%. For the same compound, in series [1], the median lethal dose (LD50) was more than 6000 mg/kg. The NK-test is reported as 7.4-23.0 with K562 (setting [3]); 7.4-23.0 with K562 (2 hours after administration); 7.4-23.0 with K562 (4 hours after administration); 7.4-23.0 with K562 (6 hours after administration); 45.3-67.8 in the series on K562 (8 hours after administration); 7.4-23.0 in the series on K562 (24 hours after administration).
